Key:
[1] = biological target: Ah‐BarR (P ah‐at aminotransferase promoter, mKate2 reporter) (Acidianus hospitalis, UniProt F4B5V3); test: cell-based
Procedure: (§1) Reporter gene assays were performed as previously described (Bernauw et al., [2022]). pPRC6 and pITC variants (Table 1) were co‐transformed in E. coli MG1655 chemical competent cells using heat shock transformation. Transformant colonies of the Ah‐BarR biosensor strains were picked to inoculate wells of a transparent 96‐well plate (Greiner Bio‐One), each well filled with 200 µL of MOPS EZ Rich Defined medium (Teknova), prepared without the addition of the 5X EZ Supplement, after which the plate was incubated overnight in a ThermoMixer C (Eppendorf) at 30°C and 300 rpm. Next, a black 96‐well plate was filled with a naringenin solution prepared in ethanol (250 mg/L or 2.5 g/L), after which a Breathe‐Easy sealing membrane (Sigma‐Aldrich) was applied and the ethanol was evaporated in a ThermoMixer C (Eppendorf) at 75°C. […] Finally, the plate was sealed again using a Breathe‐Easy sealing membrane (Sigma‐Aldrich).
(§2) Plates were incubated at 30°C and 300 rpm for 40 h in a Synergy H1 microplate reader (BioTek) with measurements of OD600 and fluorescence (excitation wavelength: 588 nm, emission wavelength: 633 nm) being taken every 20 min. The gain was set to 140 for all measurements, except for the measurements with the amino acids (pools and separately), where the gain was set to 150. […] In addition, wells solely containing medium were measured as well to correct for the background signal.
(§3) Reporter expression was analyzed at t = 30 h, when all cultures had reached the stationary phase, by taking into account three subsequent time points (t–1, t, t+1). The corrected FL/OD600 value was calculated for each replicate (n = 4) as follows: FL/ODcor=FLt−1−FLmed,t−1/ODt−1−ODmed,t−1+FLt−FLmed,t/ODt−ODmed,t+FLt+1−FLmed,t+1/ODt+1−ODmed,t+1/3
(§4) Response curves were fitted to a Hill function of the shape P(M)=b+aM^n/θ^n+M^nforaβ−alanine−inducible responseb+aθ^n/θ^n+M^nforaβ−alanine−repressible response according to a previously published procedure (Landry et al., [2018]) with minor adaptations. […] Briefly, lmfit 1.1.0 was used to fit all replicates of a response curve to the appropriate Hill function using the Levenberg‐Marquardt algorithm (Moré, [1978]; Newville et al., [2016]). […] The dynamic range was estimated as μ=a/b .

[2] = biological target: Ah‐BarR (P ah‐barR promoter, mKate2 reporter) (Acidianus hospitalis, UniProt F4B5V3); test: cell-based
Procedure: as §1, §2, §3, §4

[3] = BS2, β‐alanine 0–10 mM, 20 mg/L naringenin, Hill fit
[4] = BS1, β‐alanine 0–10 mM, 20 mg/L naringenin, t = 30 h, Hill fit

Chain of Ah‐BarR (P ah‐barR promoter, mKate2 reporter) (F4B5V3 1-165): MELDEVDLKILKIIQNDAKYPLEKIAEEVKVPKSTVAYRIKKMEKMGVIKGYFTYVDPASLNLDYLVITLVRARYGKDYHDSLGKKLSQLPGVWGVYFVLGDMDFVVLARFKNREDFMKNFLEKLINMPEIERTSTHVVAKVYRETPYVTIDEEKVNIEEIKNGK
Chain of Ah‐BarR (P ah‐at aminotransferase promoter, mKate2 reporter) (F4B5V3 1-165): as above

NCCC(=O)O [β‐alanine]
EC50 [1]: 110 µM
Hill coefficient n ([1]; BS2, 20 mg/L naringenin): 1.62
Dynamic range µ ([1]; BS2, µ = a/b): 1.58
Basal fluorescence output b [1, 3]: 313 RFU
Maximum fluorescence increase a [1, 3]: 494 RFU
EC50 [2]: 370 µM
Hill coefficient n ([2]; BS1, 20 mg/L naringenin): 1.77
Dynamic range µ ([2]; BS1, µ = a/b): 3.07
Basal fluorescence output b [2, 4]: 2226 RFU
Maximum fluorescence increase a [2, 4]: 6828 RFU
ligand specificity: effect on transcriptional regulation of barR and at ([2]; BS1 and BS2 strains, 20 mg/L naringenin, individual amino acids of pools 1 and 7 at 3/5 mM): specifically ascribed to β‐alanine
